Results as given in ChEMBL document CHEMBL1201862, “PubChem BioAssay data set” (2004).
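Compound exposure: 48 hours, 5 concentrations, 96-well plates. GI50 is the concentration that inhibits growth by half.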 Activity calls are given as the source filed them. Cut-off read from the data, not from the text of the source: active = GI50 up to about 1.1 µM and inactive = higher.

Assays:
Test in all cases: growth of human tumour cells (NCI), 48 h
EKVX = system: EKVX
HCC 2998 = system: HCC 2998
Malme-3M = system: Malme-3M
786-0 = system: 786-0
SF-295 = system: SF-295
MOLT-4 = system: MOLT-4
T47D = system: T47D
HOP-62 = system: HOP-62
SK-MEL-28 = system: SK-MEL-28
RPMI-8226 = system: RPMI-8226
SW-620 = system: SW-620
HL-60 = system: HL-60
TK-10 = system: TK-10
COLO 205 = system: COLO 205
SN12C = system: SN12C
UACC-257 = system: UACC-257
MCF7 = system: MCF7
CAKI-1 = system: CAKI-1
PC-3 = system: PC-3
OVCAR-8 = system: OVCAR-8
LOX IMVI = system: LOX IMVI
A549 = system: A549
M14 = system: M14
K562 = system: K562
DU-145 = system: DU-145
MDA-MB-231 = system: MDA-MB-231
NCI-H23 = system: NCI-H23
RXF 393 = system: RXF 393
CCRF-CEM = system: CCRF-CEM
SK-MEL-5 = system: SK-MEL-5
SNB-75 = system: SNB-75
HT-29 = system: HT-29
UACC-62 = system: UACC-62
HCT-15 = system: HCT-15
SF-268 = system: SF-268
MDA-N = system: MDA-N
SR = system: SR
KM12 = system: KM12
SK-OV-3 = system: SK-OV-3
IGROV-1 = system: IGROV-1
NCI-H460 = system: NCI-H460
SNB-19 = system: SNB-19
OVCAR-5 = system: OVCAR-5
HCT-116 = system: HCT-116
Hs-578T = system: Hs-578T
ACHN = system: ACHN
NCI-H226 = system: NCI-H226
NCI-H522 = system: NCI-H522
OVCAR-4 = system: OVCAR-4
MDA-MB-435 = system: MDA-MB-435
U-251 = system: U-251
SF-539 = system: SF-539
HOP-92 = system: HOP-92
UO-31 = system: UO-31
NCI/ADR-RES = system: NCI/ADR-RES
OVCAR-3 = system: OVCAR-3
A498 = system: A498
SK-MEL-2 = system: SK-MEL-2

Measured: GI50

C=CCc1c(O)c2nsnc2c2nsnc12
> 10 µM: HCT-15
inactive: EKVX > 10 µM | HCC 2998 > 10 µM | Malme-3M > 10 µM | 786-0 > 10 µM | SF-295 > 10 µM | MOLT-4 > 10 µM | T47D > 10 µM | HOP-62 > 10 µM | SK-MEL-28 > 10 µM | RPMI-8226 > 10 µM | SW-620 > 10 µM | HL-60 > 10 µM | TK-10 > 10 µM | COLO 205 > 10 µM | SN12C > 10 µM | UACC-257 > 10 µM | MCF7 > 10 µM | CAKI-1 > 10 µM | PC-3 > 10 µM | OVCAR-8 > 10 µM | LOX IMVI > 10 µM | A549 > 10 µM | M14 > 10 µM | K562 > 10 µM | DU-145 > 10 µM | MDA-MB-231 > 10 µM | NCI-H23 > 10 µM | RXF 393 > 10 µM | CCRF-CEM > 10 µM | SK-MEL-5 > 10 µM | SNB-75 > 10 µM | HT-29 > 10 µM | UACC-62 > 10 µM | SF-268 > 10 µM | MDA-N > 10 µM | SR > 10 µM | KM12 > 10 µM | SK-OV-3 > 10 µM | IGROV-1 > 10 µM

CCOC(=O)c1sc2c(c1OC(=O)c1ccco1)c(=O)n(-c1ccccc1)c(=S)n2-c1ccccc1
active: UO-31 1.04 µM
inactive: EKVX 21.3 µM | HCC 2998 31.4 µM | Malme-3M 15.8 µM | 786-0 28.9 µM | SF-295 > 100 µM | MOLT-4 17.2 µM | T47D 65.6 µM | HOP-62 32.1 µM | NCI-H460 17.7 µM | SNB-19 33.2 µM | SK-MEL-28 60.5 µM | RPMI-8226 30.6 µM | OVCAR-5 > 100 µM | SW-620 42.1 µM | HL-60 24.9 µM | HCT-116 29.7 µM | TK-10 39.1 µM | Hs-578T 27.5 µM | COLO 205 19.1 µM | SN12C 23.7 µM | UACC-257 90.2 µM | ACHN 27.5 µM | MCF7 41.3 µM | CAKI-1 34.3 µM | PC-3 21.4 µM | OVCAR-8 26.1 µM | NCI-H226 22.1 µM | NCI-H522 > 100 µM | LOX IMVI 25.6 µM | A549 38.6 µM | M14 28.2 µM | OVCAR-4 26.8 µM | K562 30.4 µM | MDA-MB-435 28.1 µM | DU-145 52.6 µM | MDA-MB-231 28.1 µM | NCI-H23 28.7 µM | RXF 393 22.1 µM | CCRF-CEM 35.8 µM | U-251 35.5 µM | SK-MEL-5 15.8 µM | SNB-75 25.9 µM | HT-29 55.2 µM | UACC-62 26.2 µM | SF-539 30.7 µM | HOP-92 30.2 µM | SF-268 46.1 µM | MDA-N 41.7 µM | KM12 33.4 µM | NCI/ADR-RES 21.4 µM | SK-OV-3 > 100 µM | OVCAR-3 26.5 µM | A498 23 µM | IGROV-1 17.9 µM
32.1 µM: HCT-15

COc1ccc(/C=C2/NC(=S)N=C2Cl)cc1
inactive: EKVX > 100 µM | Malme-3M > 100 µM | 786-0 > 100 µM | SF-295 > 100 µM | MOLT-4 > 100 µM | T47D > 100 µM | HOP-62 > 100 µM | SNB-19 > 100 µM | SK-MEL-28 > 100 µM | RPMI-8226 > 100 µM | OVCAR-5 21.5 µM | SW-620 > 100 µM | HL-60 > 100 µM | HCT-116 > 100 µM | TK-10 > 100 µM | Hs-578T > 100 µM | COLO 205 > 100 µM | SN12C > 100 µM | UACC-257 > 100 µM | ACHN > 100 µM | MCF7 > 100 µM | CAKI-1 > 100 µM | PC-3 > 100 µM | OVCAR-8 > 100 µM | NCI-H226 > 100 µM | NCI-H522 > 100 µM | SK-MEL-2 > 100 µM | LOX IMVI > 100 µM | A549 85.1 µM | M14 > 100 µM | OVCAR-4 > 100 µM | K562 > 100 µM | MDA-MB-435 > 100 µM | DU-145 > 100 µM | MDA-MB-231 > 100 µM | NCI-H23 > 100 µM | RXF 393 > 100 µM | CCRF-CEM > 100 µM | U-251 > 100 µM | SK-MEL-5 > 100 µM | SNB-75 > 100 µM | HT-29 > 100 µM | SF-539 > 100 µM | HOP-92 > 100 µM | UO-31 > 100 µM | SF-268 > 100 µM | MDA-N > 100 µM | SR > 100 µM | KM12 58.3 µM | NCI/ADR-RES > 100 µM | SK-OV-3 > 100 µM | OVCAR-3 > 100 µM | A498 > 100 µM | IGROV-1 > 100 µM
> 100 µM: HCT-15

N#Cc1nc(C2SCCCS2)oc1N
active: SNB-75 < 0.01 µM
> 100 µM: HCT-15
inactive: EKVX > 100 µM | 786-0 > 100 µM | MOLT-4 > 100 µM | HOP-62 > 100 µM | SNB-19 > 100 µM | SK-MEL-28 > 100 µM | RPMI-8226 95.7 µM | OVCAR-5 > 100 µM | SW-620 > 100 µM | HL-60 > 100 µM | HCT-116 > 100 µM | TK-10 > 100 µM | Hs-578T 43 µM | SN12C > 100 µM | UACC-257 > 100 µM | ACHN > 100 µM | MCF7 > 100 µM | CAKI-1 > 100 µM | PC-3 > 100 µM | OVCAR-8 > 100 µM | SK-MEL-2 > 100 µM | LOX IMVI > 100 µM | A549 > 100 µM | M14 > 100 µM | OVCAR-4 > 100 µM | K562 > 100 µM | MDA-MB-435 > 100 µM | DU-145 > 100 µM | MDA-MB-231 > 100 µM | CCRF-CEM 64.3 µM | U-251 > 100 µM | SK-MEL-5 > 100 µM | HT-29 > 100 µM | UACC-62 > 100 µM | HOP-92 > 100 µM | SF-268 > 100 µM | MDA-N > 100 µM | SR > 100 µM | KM12 > 100 µM | SK-OV-3 > 100 µM | A498 > 100 µM | IGROV-1 > 100 µM

O=C(O)c1ccc(Nc2cnc3cc(C(F)(F)F)ccc3n2)cc1
inactive: EKVX 40.6 µM | HCC 2998 30.2 µM | Malme-3M 29.5 µM | 786-0 67.6 µM | SF-295 89.3 µM | MOLT-4 47.5 µM | T47D 20.9 µM | HOP-62 90.2 µM | NCI-H460 36.1 µM | SNB-19 60 µM | SK-MEL-28 42.4 µM | RPMI-8226 35.2 µM | OVCAR-5 34 µM | SW-620 69.8 µM | HL-60 22.8 µM | HCT-116 54.7 µM | TK-10 31.5 µM | Hs-578T 40 µM | COLO 205 > 100 µM | SN12C 85.5 µM | UACC-257 43.7 µM | ACHN 34.1 µM | MCF7 38 µM | CAKI-1 > 100 µM | PC-3 80.7 µM | OVCAR-8 52.1 µM | NCI-H226 71.3 µM | NCI-H522 25.8 µM | LOX IMVI 35.8 µM | A549 42 µM | K562 29.5 µM | MDA-MB-435 43.5 µM | DU-145 58.5 µM | MDA-MB-231 36.7 µM | NCI-H23 46.5 µM | RXF 393 46.9 µM | CCRF-CEM 57.9 µM | U-251 48.2 µM | SK-MEL-5 40.8 µM | SNB-75 35.6 µM | HT-29 63.2 µM | UACC-62 25.3 µM | SF-539 78 µM | UO-31 43.2 µM | SF-268 > 100 µM | MDA-N 53.8 µM | SR 56.1 µM | KM12 37.1 µM | NCI/ADR-RES 40.9 µM | OVCAR-3 34.5 µM | IGROV-1 25.3 µM
25.6 µM: HCT-15
